Laboratory results: patent US9969694B2, “N-(arylalkyl)-N′-pyrazolyl-urea, thiourea, guanidine and cyanoguanidine compounds as TrkA kinase inhibitors” (Array BioPharma Inc., priority 2012, dated 2018)

Target: T1, His-tagged recombinant human TrkA (Homo sapiens, UniProt P04629)
T1 construct: 6HIS tagged cytoplasmic domain from Invitrogen, Catalog No. PV3144; purchased Invitrogen PV3144
Assay: TrkA Kinase Binding Assay (LanthaScreen Eu)
Conditions: averaged IC50; TR-FRET binding, 60 min, 22° C.; read-out: TrkA Enzyme IC50
How it was run: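 TR-FRET tracer displacement: 5 nM His-tagged TrkA cytoplasmic domain with 4 nM Tracer 236, biotinylated anti-His and Eu-streptavidin in pH 7.5 MOPS buffer, 2% DMSO, 60 min at 22 °C. 665/615 nm emission ratio gave percent of control; IC50 from four-parameter fit.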

T1 sequence (P04629 440-796 limits assumed): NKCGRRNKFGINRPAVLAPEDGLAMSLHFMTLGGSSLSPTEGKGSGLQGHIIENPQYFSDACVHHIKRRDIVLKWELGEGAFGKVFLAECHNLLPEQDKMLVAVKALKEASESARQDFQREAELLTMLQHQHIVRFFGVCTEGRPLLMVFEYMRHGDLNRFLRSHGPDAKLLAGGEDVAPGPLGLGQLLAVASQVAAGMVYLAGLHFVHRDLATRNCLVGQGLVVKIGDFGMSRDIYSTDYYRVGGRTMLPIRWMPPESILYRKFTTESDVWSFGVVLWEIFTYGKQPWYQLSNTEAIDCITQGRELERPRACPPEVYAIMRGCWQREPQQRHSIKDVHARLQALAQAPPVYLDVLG

With COCc1ccc(OC(F)(F)F)c(CNC(=O)Nc2c(C)c(-c3cnc(OC)nc3)nn2-c2ccccc2)c1 [Example 59, 1-(5-(methoxymethyl)-2-(trifluoromethoxy)benzyl)-3-(3-(2-methoxypyrimidin-5-yl)-4-methyl-1-phenyl-1H-pyrazol-5-yl)urea] the IC50 was < 100 nM.

COCc1cc(CNC(=O)Nc2c(C)c(-c3cnn(C)c3)nn2-c2ccccc2)c(C2CCC2)cn1 [Example 36, 1-((5-cyclobutyl-2-(methoxymethyl)pyridin-4-yl)methyl)-3-(1′,4-dimethyl-1-phenyl-1H,1′H-[3,4′-bipyrazol]-5-yl)urea] was tested, and the IC50 was < 100 nM.

COCc1ccc(OC(F)(F)F)c(CNC(=O)Nc2c(C)c(C3CCNCC3)nn2-c2ccccc2)c1 [Example 66, 1-(5-(methoxymethyl)-2-(trifluoromethoxy)benzyl)-3-(4-methyl-1-phenyl-3-(piperidin-4-yl)-1H-pyrazol-5-yl)urea] was tested, and the IC50 was < 100 nM.

For COCc1cc(CNC(=O)Nc2c(C)c(-c3cnn(C)c3)nn2-c2ccccc2)c(C2CCC2)cc1F [Example 117, 1-(2-cyclobutyl-4-fluoro-5-(methoxymethyl)benzyl)-3-(1′,4-dimethyl-1-phenyl-1H,1′H-[3,4′-bipyrazol]-5-yl)urea], the IC50 was < 100 nM.

With COCc1ccc(OC(F)(F)F)c(CNC(=O)Nc2c(C)c(OCC3CN(C)C3)nn2-c2ccccc2)c1 [Example 75, 1-(5-(methoxymethyl)-2-(trifluoromethoxy)benzyl)-3-(4-methyl-3-((1-methylazetidin-3-yl)methoxy)-1-phenyl-1H-pyrazol-5-yl)urea] the IC50 was < 100 nM.

COCc1ccc(OC(F)(F)F)c(CNC(=O)Nc2c(C)c(OC[C@H](N)CO)nn2-c2ccccc2)c1 [Example 109, (R)-1-(3-(2-amino-3-hydroxypropoxy)-4-methyl-1-phenyl-1H-pyrazol-5-yl)-3-(5-(methoxymethyl)-2-(trifluoromethoxy)benzyl)urea] was tested, and the IC50 was < 100 nM.

With COCc1ccc(OC(F)(F)F)c(CNC(=O)Nc2c(C)c(OCC3(F)CCN(C)C3)nn2-c2ccccc2)c1 (stereo not shown) [Example 76, 1-(3-((3-fluoro-1-methylpyrrolidin-3-yl)methoxy)-4-methyl-1-phenyl-1H-pyrazol-5-yl)-3-(5-(methoxymethyl)-2-(trifluoromethoxy)benzyl)urea] the IC50 was < 100 nM.

COCc1ccc(OC(F)(F)F)c(CNC(=O)Nc2c(C)c(OC[C@@H]3CCNC[C@H]3F)nn2-c2ccccc2)c1 [Example 87, 1-(3-(((3S,4S)-3-fluoropiperidin-4-yl)methoxy)-4-methyl-1-phenyl-1H-pyrazol-5-yl)-3-(5-(methoxymethyl)-2-(trifluoromethoxy)benzyl)urea] was tested, and the IC50 was < 100 nM.

In the case of COCc1ccc(C(C)C)c(CNC(=O)Nc2c(C)c(-c3cnn(C)c3)nn2-c2ccccc2)c1 [Example 34, 1-(1′,4-dimethyl-1-phenyl-1H,1′H-[3,4′-bipyrazol]-5-yl)-3-(2-isopropyl-5-(methoxymethyl)benzyl)urea], the IC50 is reported as < 100 nM.

With COCc1ccc(OC(F)(F)F)c(CNC(=O)Nc2c(C)c(O[C@H]3C[C@H](N(C)C)C3)nn2-c2ccccc2)c1 [Example 104, 1-(3-((1r,3r)-3-(dimethylamino)cyclobutoxy)-4-methyl-1-phenyl-1H-pyrazol-5-yl)-3-(5-(methoxymethyl)-2-(trifluoromethoxy)benzyl)urea] the IC50 was < 100 nM.

For COCc1ccc(OC(F)(F)F)c(CNC(=O)Nc2c(C)c(OC[C@H]3COCCN3)nn2-c2ccccc2)c1 [Example 102, (R)-1-(5-(methoxymethyl)-2-(trifluoromethoxy)benzyl)-3-(4-methyl-3-(morpholin-3-ylmethoxy)-1-phenyl-1H-pyrazol-5-yl)urea], the IC50 was < 100 nM.

Cc1ccccc1CC(NC(=O)Nc1c2c(nn1-c1ccccc1)CCC2)c1ccccc1 (stereo not shown) [Example 39, 1-(2-phenyl-2,4,5,6-tetrahydrocyclopenta[c]pyrazol-3-yl)-3-(1-phenyl-2-o-tolylethyl)urea] was tested, and the IC50 was 100 to 1000 nM.

With COCc1ccc(OC(F)(F)F)c(CNC(=O)Nc2c(C)c(OC3CCNCC3)nn2-c2ccccc2)c1 [Example 78, 1-(5-(methoxymethyl)-2-(trifluoromethoxy)benzyl)-3-(4-methyl-1-phenyl-3-(piperidin-4-yloxy)-1H-pyrazol-5-yl)urea] the IC50 was < 100 nM.

In the case of COCc1ccc(OC(F)(F)F)c(CNC(=O)Nc2c(C)c(O[C@H]3C[C@H](N)C3)nn2-c2ccccc2)c1 [Example 100, 1-(3-((1r,3r)-3-aminocyclobutoxy)-4-methyl-1-phenyl-1H-pyrazol-5-yl)-3-(5-(methoxymethyl)-2-(trifluoromethoxy)benzyl)urea], the IC50 is reported as < 100 nM.

In the case of COCc1ccc(OC(F)(F)F)c(CNC(=O)Nc2c3c(nn2-c2ccccc2)CSC3)c1 [Example 57, 1-(5-(methoxymethyl)-2-(trifluoromethoxy)benzyl)-3-(2-phenyl-4,6-dihydro-2H-thieno[3,4-c]pyrazol-3-yl)urea], the IC50 is reported as < 100 nM.

With COCc1ccc(OC(F)(F)F)c(CNC(=O)Nc2c(C)c(O[C@@H]3CCNC[C@@H]3F)nn2-c2ccccc2)c1 [Example 99, 1-(3-(((3S,4R)-3-fluoropiperidin-4-yl)oxy)-4-methyl-1-phenyl-1H-pyrazol-5-yl)-3-(5-(methoxymethyl)-2-(trifluoromethoxy)benzyl)urea] the IC50 was < 100 nM.

With COCc1ccc(C2CC2(F)F)c(CNC(=O)Nc2c(C)c(-c3cnn(C)c3)nn2-c2ccccc2)c1 (stereo not shown) [Example 25, 1-(2-(2,2-difluorocyclopropyl)-5-(methoxymethyl)benzyl)-3-(1′,4-dimethyl-1-phenyl-1H,1′H-[3,4′-bipyrazol]-5-yl)urea 2,2,2-trifluoroacetate] the IC50 was < 100 nM.

For COCc1ccc(OC(F)(F)F)c(CNC(=O)Nc2c3c(nn2-c2ccccc2)CS(=O)(=O)C3)c1 [Example 58, 1-(5,5-dioxido-2-phenyl-4,6-dihydro-2H-thieno[3,4-c]pyrazol-3-yl)-3-(5-(methoxymethyl)-2-(trifluoromethoxy)benzyl)urea], the IC50 was < 100 nM.

For COCc1ccc(OC(F)(F)F)c(CNC(=O)Nc2c(C)c(OCC3(F)CNC3)nn2-c2ccccc2)c1 [Example 86, 1-(3-((3-fluoroazetidin-3-yl)methoxy)-4-methyl-1-phenyl-1H-pyrazol-5-yl)-3-(5-(methoxymethyl)-2-(trifluoromethoxy)benzyl)urea], the IC50 was < 100 nM.

In the case of COCc1ccc(C2CCC2)c(CNC(=O)Nc2c(C)c(-c3ccc(C)nc3)nn2-c2ccccc2)c1 [Example 8, 1-(2-cyclobutyl-5-(methoxymethyl)benzyl)-3-(4-methyl-3-(6-methylpyridin-3-yl)-1-phenyl-1H-pyrazol-5-yl)urea], the IC50 is reported as < 100 nM.

For CSCc1ccc(C2CCC2)c(CNC(=O)Nc2c(C)c(-c3cnn(C)c3)nn2-c2ccccc2)c1 [Example 123, 1-(2-cyclobutyl-5-((methylthio)methyl)benzyl)-3-(1′,4-dimethyl-1-phenyl-1H,1′H-[3,4′-bipyrazol]-5-yl)urea], the IC50 was < 100 nM.

In the case of COCc1ccc(OC(F)(F)F)c(CNC(=O)Nc2c(C)c(OC3CN4CCC3CC4)nn2-c2ccccc2)c1 (stereo not shown) [Example 130, 1-(5-(methoxymethyl)-2-(trifluoromethoxy)benzyl)-3-(4-methyl-1-phenyl-3-(quinuclidin-3-yloxy)-1H-pyrazol-5-yl)urea], the IC50 is reported as < 100 nM.

For COCc1ccc(OC(F)(F)F)c(CNC(=O)Nc2c(C)c(OCC3CCCN(C)C3)nn2-c2ccccc2)c1 (stereo not shown) [Example 111, 1-(5-(methoxymethyl)-2-(trifluoromethoxy)benzyl)-3-(4-methyl-3-((1-methylpiperidin-3-yl)methoxy)-1-phenyl-1H-pyrazol-5-yl)urea], the IC50 was < 100 nM.

With COC(C)c1ccc(C2CCC2)c(CNC(=O)Nc2c(C)c(-c3cnc(C)nc3)nn2-c2ccccc2)c1 (stereo not shown) [Example 16, 1-(2-cyclobutyl-5-(1-methoxyethyl)benzyl)-3-(4-methyl-3-(2-methylpyrimidin-5-yl)-1-phenyl-1H-pyrazol-5-yl)urea] the IC50 was 100 to 1000 nM.

For COCc1ccc(OC(F)(F)F)c(CNC(=O)Nc2c(C)c(-c3cncc(OC)c3)nn2-c2ccccc2)c1 [Example 54, 1-(5-(methoxymethyl)-2-(trifluoromethoxy)benzyl)-3-(3-(5-methoxypyridin-3-yl)-4-methyl-1-phenyl-1H-pyrazol-5-yl)urea], the IC50 was < 100 nM.

With CNC(=O)c1nn(-c2ccccc2)c(NC(=O)NCc2cc(COC)ccc2OC(F)(F)F)c1C [Example 55, 5-(3-(5-(methoxymethyl)-2-(trifluoromethoxy)benzyl)ureido)-N,4-dimethyl-1-phenyl-1H-pyrazole-3-carboxamide] the IC50 was < 100 nM.

COCc1ccc(C2CC2)c(CNC(=O)Nc2c(C)c(-c3ccc(C)nc3)nn2-c2ccccc2)c1 [Example 3, 1-(2-cyclopropyl-5-(methoxymethyl)benzyl)-3-(4-methyl-3-(6-methylpyridin-3-yl)-1-phenyl-1H-pyrazol-5-yl)urea] was tested, and the IC50 was < 100 nM.

CNC(=O)c1nn(-c2ccccc2)c(NC(=O)NCc2cc(COC)ccc2OCC(F)(F)F)c1C [Example 68, 5-(3-(5-(methoxymethyl)-2-(2,2,2-trifluoroethoxy)benzyl)ureido)-N,4-dimethyl-1-phenyl-1H-pyrazole-3-carboxamide] showed an IC50 of 100 to 1000 nM.

COCc1ccc(C2CCC2)c(CNC(=O)Nc2c(C)c(OCc3nnc(C)o3)nn2-c2ccccc2)c1 [Example 126, 1-(2-cyclobutyl-5-(methoxymethyl)benzyl)-3-(4-methyl-3-((5-methyl-1,3,4-oxadiazol-2-yl)methoxy)-1-phenyl-1H-pyrazol-5-yl)urea] was tested, and the IC50 was < 100 nM.

For CNC(=O)c1nn(-c2ccccc2)c(NC(=O)NCc2cc(Br)ccc2OC(F)(F)F)c1C [Example 64, 5-(3-(5-bromo-2-(trifluoromethoxy)benzyl)ureido)-N,4-dimethyl-1-phenyl-1H-pyrazole-3-carboxamide], the IC50 was < 100 nM.

In the case of COCc1cccc(C(C)NC(=O)Nc2c(C)c(-c3cnn(C)c3)nn2-c2ccccc2)c1 (stereo not shown) [Example 29, 1-(1′,4-dimethyl-1-phenyl-1H,1′H-[3,4′-bipyrazol]-5-yl)-3-(1-(3-(methoxymethyl)phenyl)ethyl)urea 2,2,2-trifluoroacetate], the IC50 is reported as 100 to 1000 nM.
